The values that follow come from patent US7468384B2, “Microbicidal composition” (Rohm and Haas Company, priority 2004, dated 2008).

The test system of the assay is S. aureus 6538. Briefly: Synergy test, microtiter plate high resolution MIC assay, bacterium. Type of assay: cell-based. The following applies: for SI (calculated synergy index): S. aureus 6538, TSB. An excerpt: One measure of synergism is the industrially accepted method described by Kull, F. C.; Eisman, P. C.; Sylwestrowicz, H. D. and Mayer, R. L., in Applied Microbiology 9:538-541 (1961), using the ratio determined by the formula: Qa/QA+Qb/QB=Synergy Index (“SI”) wherein: • QA=concentration of compound A (first component) in ppm, acting alone, which produced an end point (MIC of Compound A). • Qa=concentration of compound A in ppm, in the mixture, which produced an end point. • QB=concentration of compound B (second component) in ppm, acting alone, which produced an end point (MIC of Compound B). • Qb=concentration of compound B in ppm, in the mixture, which produced an end point.
When the sum of Qa/QA and Qb/QB is greater than one, antagonism is indicated. […] The lower the SI, the greater the synergy shown by that particular mixture. The minimum inhibitory concentration (MIC) of a microbicide is the lowest concentration tested under a specific set of conditions that prevents the growth of added microorganisms.
Synergy tests were conducted using standard microtiter plate assays with media designed for optimal growth of the test microorganism. Soybean Casein Digest Broth (Tryptic Soy Broth, TSB medium) or minimal salt medium supplemented with 0.2% glucose and 0.1% yeast extract (M9GY medium) was used for testing bacteria; Potato Dextrose Broth (PDB medium) was used for testing yeast and mold. In this method, a wide range of combinations of microbicides was tested by conducting high resolution MIC assays in the presence of various concentrations of MI. High resolution MICs were determined by adding varying amounts of microbicide to one column of a microtitre plate and doing subsequent ten-fold dilutions using an automated liquid handling system to obtain a series of endpoints ranging from 2 ppm to 10,000 ppm active ingredient.

Read-outs that look alike come from different tables or passages of the source.

With `Cn1sccc1=O` [2-methyl-3-isothiazolone, 2-methyl-4-isothiazolin-3-one], the MIC is, setting by setting: (Staphylococcus aureus, 6538, 24 h, read-out: Qa: end-point activity (MIC) of MI in the mixture (MI alone, QA, where Qb = 0)) 200 µg/mL; (Staphylococcus aureus, 6538, 48 h, read-out: MIC of component acting alone (QA / QB)) 300 µg/mL; (Staphylococcus aureus, 6538, 48 h, read-out: Qa: end-point activity (MIC) of MI in the mixture (MI alone, QA, where Qb = 0)) 300 µg/mL; (Staphylococcus aureus, 6538, 72 h, read-out: MIC of component acting alone (QA / QB)) 300 µg/mL. For the same compound, the “SI (calculated synergy index)” value (Table 5, 48 hours) is on record as 1.00 and the “SI (calculated synergy index)” value (Table 6, 24 hours) is recorded as 1.00.
